Measured values from publication PMC8296573, “Synthesis and Biological Evaluation of Fingolimod Derivatives as Antibacterial Agents” (ACS Omega, 2021).
In brackets after ≈: the same amount, converted by molar mass. Read-outs that look alike come from different tables or passages of the source.

Legend:
[1] = tested on: A. baumannii NCTC 13423; assay: Antibacterial activity, pre-exposure; assay type: cell-based, Acinetobacter baumannii; conditions: for Average inhibition %, biofilms viability / Average inhibition %, planktonic cells viability / inhibition at 10 µM / inhibition at 15 µM / inhibition at 25 µM / inhibition at 50 µM: A. baumannii NCTC 13423, pre-exposure, ± SD; for inhibition at 10 µM / inhibition at 15 µM / inhibition at 25 µM / inhibition at 50 µM: Acinetobacter baumannii, NCTC13423
Protocol: (§1) The antimicrobial activity was assessed in a similar way for the initial screening and the dose–response evaluation against different bacterial strains. With the exception of the post-exposure experiment, the compounds were added to the wells along with the bacteria to test the ability of compounds to prevent bacterial growth and biofilm formation (pre-exposure). The compounds were diluted in DMSO and plated directly in 96-well plates before adding the bacterial culture, and plates were incubated for 18 h under aerobic conditions at 37 °C with shaking (220 rpm). The antibacterial activity of the compounds was assessed on planktonic cells and biofilms separately using two different measurements for each: optical density (turbidity) and resazurin reduction (viability) on planktonic cells and resazurin followed by a crystal violet staining assay (total biomass) on biofilms, as described in the following sections.
(§2) The resazurin staining was performed according to the protocol previously optimized with a few modifications.[46] Briefly, the planktonic solution was first transferred into a new 96-well plate and the OD of the planktonic solution was measured using a Varioskan LUX Multimode microplate reader (Thermo Scientific, Vantaa, Finland). Then, 10 μL of a 400 μM resazurin (R7017, Sigma-Aldrich, St. Louis, MO) diluted in phosphate-buffered saline (PBS) (Thermo Fisher Scientific, MA) was added to the wells (for a final resazurin concentration of 20 μM). The plate was incubated in the dark with shaking (220 rpm) for about 3–10 min at room temperature with S. aureus and A. baumannii (until the bacteria controls turned pink) or for 20 min at 37 °C with P. aeruginosa. Fluorescence was measured at λex = 560 nm and λem = 590 nm using the top optics of the Varioskan LUX Multimode microplate reader. The planktonic plate was then discarded. The original challenge plate containing the biofilms was washed once with PBS, and 200 μL of a 20 μM resazurin solution was added to the wells. The plate was incubated in the dark at 37 °C with shaking (220 rpm) for 30 min with S. aureus, 60 min with A. baumannii, and 90 min with P. aeruginosa. Fluorescence was measured as described for the planktonic solution. The biofilms were next treated with crystal violet staining.
(§3) After removing the resazurin solution from the plate, biofilms were fixed with ethanol 100% for 15 min at room temperature. Ethanol was then removed, and the biofilms were left to air-dry completely at RT. Crystal violet, diluted to 1:100 in deionized water from the 2.3% commercial solution (HT90132, Sigma-Aldrich, St. Louis, MO), was added to the wells and, after a 5 min incubation with the dye, the biofilms were washed twice with deionized water and left to air-dry for about 10 min. The dye was solubilized in ethanol 100% for 1 h, and absorbance was measured at 595 nm using a Multiskan Sky microplate spectrophotometer (Thermo Scientific, Vantaa, Finland).

[2] = tested on: S. aureus ATCC 25923; assay: Antibacterial activity, post-exposure on preformed 18-h-old biofilms; assay type: cell-based, Staphylococcus aureus; conditions: ± SD; for inhibition at 25 µM / inhibition at 50 µM / inhibition at 100 µM / inhibition at 200 µM: Staphylococcus aureus; for inhibition at 25 µM: ATCC25923, 25 µM; for inhibition at 50 µM: ATCC25923, 50 µM; for inhibition at 100 µM: ATCC25923, 100 µM; for inhibition at 200 µM: ATCC25923, 200 µM
Protocol: For the post-exposure experiment, bacteria were grown with no compounds in the same conditions for 18 h, after which the media was changed, and compounds were added on the preformed biofilms. The plates were then incubated in the same conditions for an additional 24 h before proceeding to the staining assays.
as §2, §3

[3] = tested on: S. aureus ATCC 25923; assay: Antibacterial activity, pre-exposure (planktonic cells and biofilm formation); assay type: cell-based, Staphylococcus aureus; conditions: for MIC / inhibition at 5 µM / inhibition at 10 µM / inhibition at 15 µM / inhibition at 25 µM: Staphylococcus aureus, ATCC25923; for inhibition at 5 µM / inhibition at 10 µM / inhibition at 15 µM / inhibition at 25 µM / Average inhibition %, biofilms viability / Average inhibition %, planktonic cells viability: pre-exposure, ± SD
Protocol: as §1, §2, §3

[4] = tested on: P. aeruginosa ATCC 9027; assay: Antibacterial activity, pre-exposure; assay type: cell-based, Pseudomonas aeruginosa; conditions: for Average inhibition %, biofilms viability / Average inhibition %, planktonic cells viability / inhibition at 50 µM / inhibition at 100 µM / inhibition at 150 µM / inhibition at 200 µM: P. aeruginosa ATCC 9027, pre-exposure, ± SD; for inhibition at 50 µM / inhibition at 100 µM / inhibition at 150 µM / inhibition at 200 µM: Pseudomonas aeruginosa, ATCC9027
Protocol: as §1, §2, §3

[5] = 10 µM, read-out: Average inhibition %, biofilms biomass
[6] = 10 µM, read-out: Average inhibition %, planktonic cells turbidity
[7] = 15 µM, read-out: Average inhibition %, biofilms biomass
[8] = 15 µM, read-out: Average inhibition %, planktonic cells turbidity
[9] = 25 µM, read-out: Average inhibition %, biofilms biomass
[10] = 25 µM, read-out: Average inhibition %, planktonic cells turbidity
[11] = 50 µM, read-out: Average inhibition %, biofilms biomass
[12] = 50 µM, read-out: Average inhibition %, planktonic cells turbidity
[13] = read-out: Average inhibition %, biofilms biomass
[14] = read-out: Average inhibition %, planktonic cells turbidity

`CCCCCCCCCCc1ccc(CCC(N)(CO)CO)cc1` [Compound 11, 2-Amino-2-(4-decylphenethyl)propane-1,3-diol] was tested, and the “Average inhibition %, biofilms viability” value ([1]; 10 µM) was 0 ± 0%, the “Average inhibition %, planktonic cells viability” value ([1]; 10 µM) was 11.8 ± 6% and the “Average inhibition %, biofilms viability” value ([1]; 15 µM) was 0.8 ± 1.4%. For the same molecule, the “Average inhibition %, planktonic cells viability” value ([1]; 15 µM) was 13.2 ± 6.7%, the “Average inhibition %, biofilms viability” value ([1]; 25 µM) was 3.6 ± 5.6% and the “Average inhibition %, planktonic cells viability” value ([1]; 25 µM) was 10.3 ± 9%. The “Average inhibition %, biofilms viability” value ([1]; 50 µM) was 21.4 ± 1.1%, the “Average inhibition %, planktonic cells viability” value ([1]; 50 µM) was 0.1 ± 0.1% and the inhibition at 10 µM [1, 5] was 5.1 ± 8.9%. It also gave an inhibition at 10 µM [1, 6] of 0%, an inhibition at 15 µM [1, 7] of 0% and an inhibition at 15 µM [1, 8] of 0%. The inhibition at 25 µM [1, 9] was 5.1 ± 4.6%, the inhibition at 25 µM [1, 10] was 0% and the inhibition at 50 µM [1, 11] was 15.9 ± 13.8%. The inhibition at 50 µM [1, 12] was 0%, the “MIC A. baumannii NCTC 13423” value ([1]; pre-exposure, Inactive = no activity up to 50 μM, > = some inhibition but no MIC reached) was “Inactive ^d” and the “Average inhibition %, biofilms viability” value ([2]; 25 µM) was 10.2 ± 8.5%. The “Average inhibition %, planktonic cells viability” value ([2]; 25 µM) was 0 ± 0%, the “Average inhibition %, biofilms viability” value ([2]; 50 µM) was 17.5 ± 9% and the “Average inhibition %, planktonic cells viability” value ([2]; 50 µM) was 0 ± 0%. The “Average inhibition %, biofilms viability” value ([2]; 100 µM) was 24.8 ± 10.2%, the “Average inhibition %, planktonic cells viability” value ([2]; 100 µM) was 6 ± 10.4% and the “Average inhibition %, biofilms viability” value ([2]; 200 µM) was 25.8 ± 8.3%. For the same molecule, the “Average inhibition %, planktonic cells viability” value ([2]; 200 µM) was 30.5 ± 9.5%, the inhibition at 25 µM [2, 13] was 32.6 ± 5.1% and the inhibition at 25 µM [2, 14] was 8.9 ± 8.2%. It also gave an inhibition at 50 µM [2, 13] of 35.4 ± 2.7%, an inhibition at 50 µM [2, 14] of 14 ± 4.2% and an inhibition at 100 µM [2, 13] of 48.9 ± 4.7%. It also gave an inhibition at 100 µM [2, 14] of 16.2 ± 8.6%, an inhibition at 200 µM [2, 13] of 47.6 ± 7.1% and an inhibition at 200 µM [2, 14] of 22.2 ± 12.7%. The “Initial screening result (active = at least 60% inhibition of planktonic cells and biofilm formation)” value ([3]; 50 μM, S. aureus) was “active”, the MIC ([3]; lowest concentration with no visible growth (>90% inhibition of turbidity and viability of planktonic cells), 18 h, read-out: MIC S. aureus ATCC 25923) was 10 to 15 µM (≈ 3.36 to 5.03 µg/mL) and the inhibition at 5 µM ([3]; 5 µM, read-out: Average inhibition %, biofilms biomass) was 40.1 ± 36.6%. It also gave an inhibition at 5 µM ([3]; 5 µM, read-out: Average inhibition %, planktonic cells turbidity) of 12.5 ± 12.4%, an inhibition at 10 µM [3, 5] of 75.6 ± 20.8% and an inhibition at 10 µM [3, 6] of 70.4 ± 40%. The inhibition at 15 µM [3, 7] was 87.1 ± 9.9%, the inhibition at 15 µM [3, 8] was 97.5 ± 1.9% and the inhibition at 25 µM [3, 9] was 89 ± 0.7%. The inhibition at 25 µM [3, 10] was 97.9 ± 1.2%, the MIC ([3]; read-out: MIC (S. aureus)) was 10 to 15 µM (≈ 3.36 to 5.03 µg/mL) and the “Average inhibition %, biofilms viability” value ([3]; 5 µM) was 41.8 ± 9.7%. For the same molecule, the “Average inhibition %, planktonic cells viability” value ([3]; 5 µM) was 17 ± 23.3%, the “Average inhibition %, biofilms viability” value ([3]; 10 µM) was 72.2 ± 23.8% and the “Average inhibition %, planktonic cells viability” value ([3]; 10 µM) was 73.3 ± 34.2%. For the same molecule, the “Average inhibition %, biofilms viability” value ([3]; 15 µM) was 84.9 ± 24.9%, the “Average inhibition %, planktonic cells viability” value ([3]; 15 µM) was 98.5 ± 1.7% and the “Average inhibition %, biofilms viability” value ([3]; 25 µM) was 93.8 ± 10.1%. For the same molecule, the “Average inhibition %, planktonic cells viability” value ([3]; 25 µM) was 99.2 ± 1.3%, the “Average inhibition %, biofilms viability” value ([4]; 50 µM) was 0 ± 0% and the “Average inhibition %, planktonic cells viability” value ([4]; 50 µM) was 26.2 ± 4.1%. The “Average inhibition %, biofilms viability” value ([4]; 100 µM) was 0 ± 0%, the “Average inhibition %, planktonic cells viability” value ([4]; 100 µM) was 6.4 ± 11.1% and the “Average inhibition %, biofilms viability” value ([4]; 150 µM) was 0 ± 0%. For the same molecule, the “Average inhibition %, planktonic cells viability” value ([4]; 150 µM) was 10.3 ± 9.3%, the “Average inhibition %, biofilms viability” value ([4]; 200 µM) was 0 ± 0% and the “Average inhibition %, planktonic cells viability” value ([4]; 200 µM) was 1.2 ± 2%. For the same molecule, the inhibition at 50 µM [4, 11] was 8.3 ± 5.9%, the inhibition at 50 µM [4, 12] was 22.2 ± 20.1% and the inhibition at 100 µM ([4]; 100 µM, read-out: Average inhibition %, biofilms biomass) was 13 ± 13.3%. The inhibition at 100 µM ([4]; 100 µM, read-out: Average inhibition %, planktonic cells turbidity) was 20.4 ± 17.1%, the inhibition at 150 µM ([4]; 150 µM, read-out: Average inhibition %, biofilms biomass) was 12.1 ± 11.1% and the inhibition at 150 µM ([4]; 150 µM, read-out: Average inhibition %, planktonic cells turbidity) was 7.6 ± 5.1%. The inhibition at 200 µM ([4]; 200 µM, read-out: Average inhibition %, biofilms biomass) was 3.1 ± 4.2%, the inhibition at 200 µM ([4]; 200 µM, read-out: Average inhibition %, planktonic cells turbidity) was 13.4 ± 11.7% and the “MIC P. aeruginosa ATCC 9027” value ([4]; pre-exposure, Inactive = no activity up to 200 μM, > = some inhibition but no MIC reached) was “Inactive”.
